Experimental data published in patent publication US20160176867A1, “MODIFIED BET-PROTEIN-INHIBITING DIHYDROQUINOXALINONES AND DIHYDROPYRIDOPYRAZINONES” (BAYER PHARMA AKTIENGESELLSCHAFT, priority 2013, published 2016).

How the values were obtained:
[1] = tested on: MOLP-8 cells; assay: Cell proliferation assay (alamarBlue), MOLP-8; format: cell-based; conditions: Homo sapiens; MOLP-8 (multiple myeloma), 120 hours
Method in brief: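 MOLP-8 cells plated at 4000 cells/well in RPMI1640 with 20% FCS, read after overnight culture, then treated with dilutions from 1E-5 to 1E-8 M for 120 hours at 37° C. Viability by alamarBlue fluorescence (ex 530/em 590 nm); initial reads subtracted, compared with buffer-treated cells, and IC50 calculated for 50% proliferation inhibition.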

[2] = target: T1, BRD4 bromo domain 2 [BRD4(2)] (Homo sapiens, UniProt O60885); assay: BRD4/acetylated peptide H4 binding assay (TR-FRET), BRD4 bromo domain 2; conditions: inhibition of BRD4(2)/Ac-H4 peptide interaction
T1 construct: N-terminally His6-tagged BRD4(2) (amino acids 357-445); made in house; host or cells: E. coli
Method in brief: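 Binding of His6-BRD4(2) (aa 357-445, 100 nM final) to biotinylated tetra-acetylated H4 peptide read by TR-FRET (665/620 nm). Compound preincubated 10 min at 22 °C, then 1 h at 22 °C plus ≥3 h at 4 °C. Eleven concentrations (0.1 nM–20 μM) in duplicate; IC50 by 4-parameter fit.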

SMILES | IC50 [2] [nM] | IC50 [1] [nM]
C[C@@H]1C(=O)N(C)c2ccc(Nc3cccc(S(=O)(=O)N[C@H]4CC[C@H](N5CCN(CC6CC6)CC5)CC4)c3)nc2N1C1CCN(C(=O)OC(C)(C)C)CC1 [Example 52, tert-butyl 4-[(3R)-6-{[3-({trans-4-[4-(cyclo-propylmethyl)piperazin-1-yl]cyclohexyl}-sulphamoyl)phenyl]amino}-1,3-dimethyl-2-oxo-2,3-dihydropyrido[2,3-b]pyrazin-4(1H)-yl]piperidine-1-carboxylate] | 86 | 133
C[C@@H]1C(=O)N(C)c2ccc(N(C)c3cccc(S(=O)(=O)N(C)C)c3)nc2N1C1CCOCC1 [Example 54, 3-{[(3R)-1,3-dimethyl-2-oxo-4-(tetrahydro-2H-pyran-4-yl)-1,2,3,4-tetrahydropyrido[2,3-b]pyrazin-6-yl](methyl)-amino}-N,N-dimethyl-benzenesulphonamide] | 62 | 247
CC(C)N1c2nc(Nc3cccc(S(=O)(=O)NCCN(C)C)c3)ccc2N(C)C(=O)[C@H]1C [Example 55, N-[2-(dimethylamino)-ethyl]-3-{[(3R)-4-isopropyl-1,3-dimethyl-2-oxo-1,2,3,4-tetrahydro-pyrido[2,3-b]pyrazin-6-yl]amino}benzene-sulphonamide] | 149 | 48
C[C@@H]1C(=O)N(C)c2ccc(Nc3ccc4c(c3)S(=O)(=O)NC4)nc2N1C1CCOCC1 [Example 56, (3R)-6-[(1,1-dioxido-2,3-dihydro-1,2-benzothiazol-6-yl)amino]-1,3-dimethyl-4-(tetrahydro-2H-pyran-4-yl)-3,4-dihydropyrido[2,3-b]pyrazin-2(1H)-one] | 77 | 214
C[C@@H]1C(=O)N(C)c2ccc(Nc3cccc(S(=O)(=O)NCCN(C)C)c3)nc2N1C1CCN(C(=O)OC(C)(C)C)CC1 [Example 59, tert-butyl 4-[(3R)-6-[(3-{[2-(dimethylamino)ethyl]-sulphamoyl}phenyl)amino]-1,3-dimethyl-2-oxo-2,3-dihydropyrido[2,3-b]pyrazin-4(1H)-yl]piperidine-1-carboxylate] | 77 | 297
C[C@@H]1C(=O)N(C)c2ccc(Nc3cccc(S(=O)(=O)N4CC5(CCC5)C4)c3)nc2N1C1CCNCC1 [Example 122, (3R)-6-{[3-(2-Azaspiro[3.3]hept-2-ylsulphonyl)phenyl]amino}-1,3-dimethyl-4-(piperidin-4-yl)-3,4-dihydropyrido[2,3-b]pyrazin-2(1H)-one] | 94 | 493
C[C@@H]1C(=O)N(C)c2ccc(Nc3cccc(S(=O)(=O)N(C)C)c3)nc2N1C1CCNCC1 [Example 123, 3-{[(3R)-1,3-dimethyl-2-oxo-4-(piperidin-4-yl)-1,2,3,4-tetrahydropyrido[2,3-b]pyrazin-6-yl]amino}-N,N-dimethylbenzene-sulphonamide] | 62 | 169
C[C@@H]1C(=O)N(C)c2ccc(Nc3cccc(S(=O)(=O)N4CCN(CC(F)(F)F)CC4)c3)nc2N1C1CCNCC1 [Example 126, (3R)-1,3-dimethyl-4-(piperidin-4-yl)-6-[(3-{[4-(2,2,2-trifluoroethyl)piperazin-1-yl]sulphonyl}phenyl)amino]-3,4-dihydropyrido[2,3-b]pyrazin-2(1H)-one] | 86 | 130
C[C@@H]1C(=O)N(C)c2ccc(Nc3cccc(S(=O)(=O)N[C@H]4CC[C@H](N5CCN(CC6CC6)CC5)CC4)c3)nc2N1C1CCNCC1 [Example 127, N-{trans-4-[4-(cyclopropylmethyl)piperazin-1-yl]cyclohexyl}-3-{[(3R)-1,3-dimethyl-2-oxo-4-(piperidin-4-yl)-1,2,3,4-tetrahydropyrido[2,3-b]pyrazin-6-yl]amino}-benzenesulphonamide] | 90 | > 10000
C[C@@H]1C(=O)N(C)c2ccc(Nc3cccc(S(=O)(=O)N(C)C)c3)cc2N1C1CCNCC1 [Example 129, 3-{[(3R)-1,3-dimethyl-2-oxo-4-(piperidin-4-yl)-1,2,3,4-tetrahydroquinoxalin-6-yl]amino}-N,N-dimethylbenzenesulphon-amide] | 97 | 567
C[C@@H]1C(=O)N(C)c2ccc(Nc3cccc(C(=O)N[C@H]4CC[C@H](N5CCN(CC6CC6)CC5)CC4)c3)nc2N1C1CCNCC1 [Example 131, N-{trans-4-[4-(cyclo-propylmethyl)piperazin-1-yl]cyclohexyl}-3-{[(3R)-1,3-dimethyl-2-oxo-4-(piperidin-4-yl)-1,2,3,4-tetrahydropyrido[2,3-b]pyrazin-6-yl]amino}benzamide] | 188 | > 20000
C[C@@H]1C(=O)N(C)c2ccc(Nc3cccc(C(=O)N(C)C)c3)cc2N1C1CCNCC1 [Example 133, 3-{[(3R)-1,3-dimethyl-2-oxo-4-(piperidin-4-yl)-1,2,3,4-tetrahydroquinoxalin-6-yl]amino}-N,N-dimethylbenzamide] | 990 | 2010

The next lines start with results.

IC50 [2] [nM] | SMILES | IC50 [1] [nM]
99 | CC(C)N1c2nc(Nc3cccc(S(=O)(=O)NC4CCN(C)CC4)c3)ccc2N(C)C(=O)[C@H]1C [Example 51, 3-{[(3R)-4-isopropyl-1,3-dimethyl-2-oxo-1,2,3,4-tetrahydropyrido[2,3-b]pyrazin-6-yl]amino}-N-(1-methylpiperidin-4-yl)benzenesulphonamide] | 58
177 | C[C@@H]1C(=O)N(C)c2ccc(Nc3cccc(S(=O)(=O)NC4CCN(C)CC4)c3)nc2N1C1CCN(C(=O)OC(C)(C)C)CC1 [Example 57, tert-butyl 4-[(3R)-1,3-dimethyl-6-({3-[(1-methylpiperidin-4-yl)sulphamoyl]phenyl}-amino)-2-oxo-2,3-dihydro-pyrido[2,3-b]pyrazin-4(1H)-yl]piperidine-1-carboxylate] | 151
103 | C[C@@H]1C(=O)N(C)c2ccc(Nc3cccc(S(N)(=O)=O)c3)nc2N1C1CCOCC1 [Example 58, 3-{[(3R)-1,3-dimethyl-2-oxo-4-(tetrahydro-2H-pyran-4-yl)-1,2,3,4-tetrahydropyrido[2,3-b]pyrazin-6-yl]amino}-benzenesulphonamide] | 268
256 | C[C@@H]1C(=O)N(C)c2ccc(Nc3cccc(C(=O)N[C@H]4CC[C@H](N5CCN(CC6CC6)CC5)CC4)c3)nc2N1Cc1ccccc1 [Example 72, 3-{[(3R)-4-benzyl-1,3-dimethyl-2-oxo-1,2,3,4-tetrahydropyrido[2,3-b]pyrazin-6-yl]amino}-N-{trans-4-[4-(cyclo-propylmethyl)piperazin-1-yl]cyclohexyl}benzamide] | 122
86 | C[C@@H]1C(=O)N(C)c2ccc(Nc3cccc(C(=O)NC4CCN(C)CC4)c3)nc2N1Cc1ccccc1 [Example 73, 3-{[(3R)-4-benzyl-1,3-dimethyl-2-oxo-1,2,3,4-tetrahydropyrido[2,3-b]pyrazin-6-yl]amino}-N-(1-methylpiperidin-4-yl)benzamide] | 63
91 | C[C@@H]1C(=O)N(C)c2ccc(Nc3cccc(C(=O)NCCN4CCN(C)CC4)c3)nc2N1Cc1ccccc1 [Example 74, 3-{[(3R)-4-benzyl-1,3-dimethyl-2-oxo-1,2,3,4-tetrahydropyrido[2,3-b]pyrazin-6-yl]amino}-N-[2-(4-methylpiperazin-1-yl)ethyl]benzamide] | 82
79 | C[C@@H]1C(=O)N(C)c2ccc(Nc3cccc(C(=O)N4CCN(C)CC4)c3)nc2N1Cc1ccccc1 [Example 75] | 133
118 | CC(C)N1c2nc(Nc3cccc(C(=O)N4CCN(C)CC4)c3)ccc2N(C)C(=O)[C@H]1C [Example 77, (3R)-4-isopropl-1,3-dimethyl-6-({3-[(4-methylpiperazin-1-yl)carbonyl]phenyl}-amino)-3,4-dihydro-pyrido[2,3-b]pyrazin-2(1H)-one] | 494
116 | CC(C)N1c2nc(Nc3cccc(C(=O)N[C@H]4CC[C@H](N5CCN(CC6CC6)CC5)CC4)c3)ccc2N(C)C(=O)[C@H]1C [Example 79, N-{trans-4-[4-(cyclo-propylmethyl)piperazin-1-yl]cyclohexyl}-3-{[(3R)-4-isopropyl-1,3-dimethyl-2-oxo-1,2,3,4-tetrahydropyrido[2,3-b]pyrazin-6-yl]amino}benzamide] | 77
177 | CC(C)N1c2nc(Nc3cccc(C(=O)N4CCN(CC5CC5)CC4)c3)ccc2N(C)C(=O)[C@H]1C [Example 88, (3R)-6-[(3-{[4-(cyclo-propylmethyl)piperazin-1-yl]carbonyl}phenyl)amino]-4-isopropyl-1,3-dimethyl-3,4-dihydropyrido[2,3-b]pyrazin-2(1H)-one] | 876
2450 | C[C@@H]1C(=O)N(C)c2ccc(Nc3cccc(C(=O)N[C@H]4CC[C@H](N5CCN(CC6CC6)CC5)CC4)c3)nc2N1c1ccc(F)cc1 [Example 93] | 800
46 | C[C@@H]1C(=O)N(C)c2ccc(Nc3cccc(S(=O)(=O)NC4CCN(C)CC4)c3)nc2N1C1CCNCC1 [Example 124, 3-{[(3R)-1,3-dimethyl-2-oxo-4-(piperidin-4-yl)-1,2,3,4-tetrahydropyrido[2,3-b]pyrazin-6-yl]amino}-N-(1-methylpiperidin-4-yl)benzenesulphonamide] | > 20000
44 | C[C@@H]1C(=O)N(C)c2ccc(Nc3cccc(S(=O)(=O)N4CCN(C)CC4)c3)nc2N1C1CCNCC1 [Example 125, (3R)-1,3-dimethyl-6-({3-[(4-methylpiperazin-1-yl)sulphonyl]phenyl}amino)-4-(piperidin-4-yl)-3,4-dihydropyrido[2,3-b]pyrazin-2(1H)-one] | 719
